Measurements taken from the NIST ThermoML archive (doi:10.1016/j.tca.2007.03.018).
“And” between values parts separate entries of the source, which are not always exact repeats. Equal entries are not always repeated.

Experiment: molar heat capacity at saturation pressure
Conditions: Crystal 3, Small (less than 1 g) adiabatic calorimetry

C1C2CC3CC1CC(C14CC5CC(CC(C5)C1)C4)(C2)C3 [1,1'-biadamantane]
Conditions | molar heat capacity
5.12 K | 0.3991 J/K/mol
5.48 K | 0.4822 J/K/mol
5.83 K | 0.5877 J/K/mol
6.16 K | 0.685 J/K/mol
6.52 K | 0.8082 J/K/mol
6.89 K | 0.9715 J/K/mol
7.26 K | 1.141 J/K/mol
7.65 K | 1.358 J/K/mol
8.06 K | 1.589 J/K/mol
8.49 K | 1.895 J/K/mol
8.96 K | 2.209 J/K/mol
9.44 K | 2.572 J/K/mol
9.95 K | 2.983 J/K/mol
10.48 K | 3.464 J/K/mol
11.04 K | 3.988 J/K/mol
11.61 K | 4.561 J/K/mol
12.2 K | 5.242 J/K/mol
12.83 K | 5.943 J/K/mol
13.49 K | 6.781 J/K/mol
14.18 K | 7.626 J/K/mol
14.87 K | 8.538 J/K/mol
15.63 K | 9.556 J/K/mol
16.43 K | 10.67 J/K/mol
17.24 K | 11.86 J/K/mol
18.08 K | 13.09 J/K/mol
18.95 K | 14.44 J/K/mol
19.88 K | 15.84 J/K/mol
20.83 K | 17.31 J/K/mol
21.82 K | 18.74 J/K/mol
22.89 K | 20.35 J/K/mol
22.95 K | 20.46 J/K/mol
24.01 K | 21.99 J/K/mol
24.06 K | 22.16 J/K/mol
25.22 K | 23.79 J/K/mol
26.48 K | 25.74 J/K/mol
27.75 K | 27.57 J/K/mol
29.1 K | 29.32 J/K/mol
30.54 K | 31.4 J/K/mol
31.99 K | 33.13 J/K/mol
33.46 K | 34.98 J/K/mol
34.99 K | 36.71 J/K/mol
36.59 K | 38.54 J/K/mol
38.25 K | 40.44 J/K/mol
40.03 K | 42.38 J/K/mol
41.9 K | 44.38 J/K/mol
43.85 K | 46.11 J/K/mol
45.82 K | 48.13 J/K/mol
47.8 K | 49.99 J/K/mol
49.9 K | 51.98 J/K/mol
52.16 K | 54.02 J/K/mol
56.79 K | 58.28 J/K/mol
59.06 K | 60 J/K/mol
61.48 K | 62.21 J/K/mol
64.1 K | 64.5 J/K/mol
66.87 K | 66.86 J/K/mol
69.6 K | 69.08 J/K/mol
72.27 K | 71.72 J/K/mol
74.94 K | 73.93 J/K/mol
77.75 K | 76.41 J/K/mol
78.69 K | 77.62 J/K/mol
80.6 K | 79.18 J/K/mol
81.1 K | 79.65 J/K/mol
83.35 K | 81.61 J/K/mol
83.41 K | 81.57 J/K/mol
85.61 K | 83.56 J/K/mol
86.26 K | 84.36 J/K/mol
87.88 K | 85.72 J/K/mol
89.1 K | 86.73 J/K/mol
90.15 K | 87.8 J/K/mol
91.92 K | 89.55 J/K/mol
92.41 K | 89.88 J/K/mol
94.69 K | 91.96 J/K/mol
96.97 K | 94.12 J/K/mol
99.26 K | 96.28 J/K/mol
101.55 K | 98.53 J/K/mol
103.84 K | 100.69 J/K/mol
106.12 K | 102.85 J/K/mol
108.41 K | 105.09 J/K/mol
110.71 K | 107.17 J/K/mol
113 K | 109.58 J/K/mol
115.31 K | 111.83 J/K/mol
117.61 K | 113.99 J/K/mol
119.9 K | 116.15 J/K/mol
122.2 K | 118.56 J/K/mol
124.49 K | 120.81 J/K/mol
126.77 K | 123.05 J/K/mol
129.06 K | 125.38 J/K/mol
130.26 K | 126.5 J/K/mol
131.34 K | 127.63 J/K/mol
132.68 K | 129 J/K/mol
134.96 K | 131.3 J/K/mol
137.24 K | 133.6 J/K/mol
139.51 K | 135.9 J/K/mol
141.78 K | 138.2 J/K/mol
144.05 K | 140.5 J/K/mol
146.32 K | 142.9 J/K/mol
148.59 K | 145.3 J/K/mol
150.84 K | 147.7 J/K/mol
153.1 K | 150.1 J/K/mol
155.35 K | 152.4 J/K/mol
157.59 K | 154.7 J/K/mol
159.84 K | 157.1 J/K/mol
162.08 K | 159.6 J/K/mol
164.32 K | 161.9 J/K/mol
166.57 K | 164.4 J/K/mol
168.8 K | 166.9 J/K/mol
171.03 K | 169.3 J/K/mol
173.25 K | 171.7 J/K/mol
175.46 K | 174.2 J/K/mol
177.68 K | 176.7 J/K/mol
179.89 K | 179.2 J/K/mol
182.09 K | 181.7 J/K/mol
184.28 K | 184.2 J/K/mol
186.47 K | 186.7 J/K/mol
188.65 K | 189.2 J/K/mol
190.83 K | 191.6 J/K/mol
193 K | 194.2 J/K/mol
195.17 K | 196.7 J/K/mol
197.33 K | 199.3 J/K/mol
199.49 K | 201.8 J/K/mol
201.65 K | 204.5 J/K/mol
203.8 K | 207.1 J/K/mol
205.94 K | 209.8 J/K/mol
208.08 K | 212.4 J/K/mol
210.21 K | 215 J/K/mol
212.34 K | 217.7 J/K/mol
214.46 K | 220.3 J/K/mol
216.58 K | 222.9 J/K/mol
217.18 K | 223.7 J/K/mol
218.7 K | 225.6 J/K/mol
219.55 K | 226.6 J/K/mol
220.81 K | 228.3 J/K/mol
221.81 K | 229.5 J/K/mol
222.91 K | 231 J/K/mol
224.05 K | 232.4 J/K/mol
225.01 K | 233.7 J/K/mol
226.29 K | 235.3 J/K/mol
228.52 K | 238.3 J/K/mol
230.75 K | 241.1 J/K/mol
232.97 K | 244 J/K/mol
235.18 K | 246.9 J/K/mol
237.39 K | 249.9 J/K/mol
239.59 K | 252.9 J/K/mol
241.79 K | 255.7 J/K/mol
243.98 K | 258.7 J/K/mol
246.17 K | 261.7 J/K/mol
248.35 K | 264.6 J/K/mol
250.52 K | 267.6 J/K/mol
252.71 K | 270.6 J/K/mol
254.88 K | 273.6 J/K/mol
257.04 K | 276.7 J/K/mol
259.19 K | 279.8 J/K/mol
261.34 K | 282.9 J/K/mol
263.48 K | 286 J/K/mol
265.62 K | 289.2 J/K/mol
267.75 K | 292 J/K/mol
269.87 K | 295.1 J/K/mol
271.98 K | 298.2 J/K/mol
274.09 K | 301.2 J/K/mol
275.74 K | 303.3 J/K/mol
276.2 K | 304.1 J/K/mol
277.54 K | 306 J/K/mol
278.29 K | 307.1 J/K/mol
279.26 K | 308.4 J/K/mol
280.39 K | 310.1 J/K/mol
280.98 K | 311 J/K/mol
282.47 K | 313.1 J/K/mol
282.68 K | 313.6 J/K/mol
284.38 K | 316 J/K/mol
284.56 K | 316 J/K/mol
286.08 K | 318.6 J/K/mol
286.65 K | 319.1 J/K/mol
287.78 K | 321.1 J/K/mol
288.72 K | 322.2 J/K/mol
289.47 K | 323.6 J/K/mol
290.79 K | 325 J/K/mol
291.16 K | 325.9 J/K/mol
292.84 K | 328 J/K/mol and 328.3 J/K/mol
294.52 K | 330.7 J/K/mol
294.89 K | 331.1 J/K/mol
296.19 K | 333.2 J/K/mol
296.94 K | 334 J/K/mol
297.87 K | 335.4 J/K/mol
298.98 K | 336.9 J/K/mol
299.54 K | 338 J/K/mol
301.01 K | 339.9 J/K/mol
301.2 K | 340.6 J/K/mol
302.86 K | 342.9 J/K/mol
303.04 K | 342.7 J/K/mol
304.51 K | 345.2 J/K/mol
305.05 K | 345.7 J/K/mol
